Laboratory results: ChEMBL document CHEMBL5120817, “Quinone Derivatives as Promising Anti-Helicobacter pylori Agents from Aerial Parts of Mitracarpus hirtus” (2022)
In brackets after ≈: the same amount, converted by molar mass.

How the values were obtained:
Format in all cases: functional
[1] = test system: Helicobacter pylori; test: Potency index, ratio of metronidazole MIC to test compound MIC for antibacterial activity against multidrug resistant Helicobacter pylori JRES00015
[2] = test system: Helicobacter pylori; test: Antibacterial activity against multidrug resistant Helicobacter pylori JRES00015 assessed as bacterial growth inhibition incubated for 3 days by broth microdilution method; details: JRES00015, 72 h, time 3 day
[3] = test system: Helicobacter pylori; test: Antibacterial activity against multidrug resistant Helicobacter pylori HP159 assessed as bacterial growth inhibition incubated for 3 days by broth microdilution method; details: HP159, 72 h, time 3 day
[4] = test system: Helicobacter pylori; test: Antibacterial activity against multidrug resistant Helicobacter pylori G27 assessed as bacterial growth inhibition incubated for 3 days by broth microdilution method; details: G27, 72 h, time 3 day
[5] = test system: Helicobacter pylori; test: Antibiofilm activity against Helicobacter pylori G27 assessed as reduction in viable cells count at 4 times MIC
[6] = test system: Helicobacter pylori; test: Antibiofilm activity against Helicobacter pylori G27 assessed as reduction in preformed bacterial biofilm at 4 times MIC by crystal violet staining based assay; set-up: scale not given: the % may be the effect or the level left
[7] = test system: Helicobacter pylori; test: Antibiofilm activity against Helicobacter pylori G27 assessed as reduction in viable bacteria within biofilms at 0.25 ug/ml incubated for 20 hrs by alamar blue assay; details: dose 0.25 µg/ml

Compound	Ratio [1]	MIC [2]	MIC [3]	MIC [4]	Activity [5]	Activity [6]	Activity [7]
O=C1C2=C(C(=O)c3ccccc31)C(O)OCC2 (stereo not given)	512	0.0625 µg/mL (≈ 0.271 µM)	0.125 µg/mL (≈ 0.543 µM)	0.125 µg/mL (≈ 0.543 µM)	–	–	–
CO[C@H]1OCc2c(c(O[C@@H]3O[C@H](CO)[C@@H](O)[C@H](O)[C@H]3O)c3ccccc3c2O[C@@H]2O[C@H](C)[C@@H](O)[C@H](O)[C@H]2O)[C@@H]1O	–	32 µg/mL (≈ 56.1 µM)	64 µg/mL (≈ 112 µM)	64 µg/mL (≈ 112 µM)	–	–	–
O=C1c2ccccc2C(=O)c2cc(CO)ccc21	–	8 µg/mL (≈ 33.6 µM)	8 µg/mL (≈ 33.6 µM)	8 µg/mL (≈ 33.6 µM)	–	–	–
CC[C@H]1OC(=O)[C@H](C)[C@@H](O[C@H]2C[C@@](C)(OC)[C@@H](O)[C@H](C)O2)[C@H](C)[C@@H](O[C@@H]2O[C@H](C)C[C@H](N(C)C)[C@H]2O)[C@](C)(OC)C[C@@H](C)C(=O)[C@H](C)[C@@H](O)[C@]1(C)O [CLARITHROMYCIN]	–	2 µg/mL (≈ 2.67 µM)	2 µg/mL (≈ 2.67 µM)	0.008 µg/mL (≈ 0.0107 µM)	–	–	–
COc1cc2c(cc1O)C(=O)c1cc(C)ccc1C2=O	–	16 µg/mL (≈ 59.6 µM)	8 µg/mL (≈ 29.8 µM)	16 µg/mL (≈ 59.6 µM)	–	–	–
OC[C@H]1O[C@@H](Oc2c3c(c(O[C@@H]4O[C@H](CO)[C@@H](O)[C@H](O)[C@H]4O)c4ccccc24)CC(O)OC3)[C@H](O)[C@@H](O)[C@@H]1O (stereo not given in full)	–	> 64 µg/mL	> 64 µg/mL	> 64 µg/mL	–	–	–
C[C@H]1O[C@@H](Oc2c3c(c(O[C@@H]4O[C@H](CO)[C@@H](O)[C@H](O)[C@H]4O)c4ccccc24)C=COC3)[C@H](O)[C@@H](O)[C@@H]1O	–	32 µg/mL (≈ 61.2 µM)	32 µg/mL (≈ 61.2 µM)	32 µg/mL (≈ 61.2 µM)	–	–	–
C[C@H]1COc2c(N3CCN(C)CC3)c(F)cc3c(=O)c(C(=O)O)cn1c23.C[C@H]1COc2c(N3CCN(C)CC3)c(F)cc3c(=O)c(C(=O)O)cn1c23.O [LEVOFLOXACIN]	–	16 µg/mL	8 µg/mL	0.25 µg/mL	–	–	–
CO[C@H]1Cc2c(c(O[C@@H]3O[C@H](C)[C@@H](O)[C@H](O)[C@H]3O)c3ccccc3c2O[C@@H]2O[C@H](CO)[C@@H](O)[C@H](O)[C@H]2O)CO1	–	> 64 µg/mL	> 64 µg/mL	> 64 µg/mL	–	–	–
C/C(=C/Cc1c(C(=O)O)c(O[C@@H]2O[C@H](CO)[C@@H](O)[C@H](O)[C@H]2O)c2ccccc2c1O[C@@H]1O[C@H](CO)[C@@H](O)[C@H](O)[C@H]1O)CO	–	> 64 µg/mL	> 64 µg/mL	> 64 µg/mL	–	–	–
CO[C@@H]1Cc2c(c(O[C@@H]3O[C@H](C)[C@@H](O)[C@H](O)[C@H]3O)c3ccccc3c2O[C@@H]2O[C@H](CO)[C@@H](O)[C@H](O)[C@H]2O)CO1	–	32 µg/mL (≈ 57.7 µM)	64 µg/mL (≈ 115 µM)	64 µg/mL (≈ 115 µM)	–	–	–
O=C1c2ccccc2C(=O)c2cnccc21	512	0.0625 µg/mL (≈ 0.299 µM)	0.0625 µg/mL (≈ 0.299 µM)	0.125 µg/mL (≈ 0.598 µM)	4.65 log10CFU/ml	51%	100%
CO[C@H]1Cc2c(c(O[C@@H]3O[C@H](CO)[C@@H](O)[C@H](O)[C@H]3O)c3ccccc3c2O[C@@H]2O[C@H](CO)[C@@H](O)[C@H](O)[C@H]2O)CO1	–	> 64 µg/mL	> 64 µg/mL	> 64 µg/mL	–	–	–
CO[C@@H]1Cc2c(c(O[C@@H]3O[C@H](CO)[C@@H](O)[C@H](O)[C@H]3O)c3ccccc3c2O[C@@H]2O[C@H](CO)[C@@H](O)[C@H](O)[C@H]2O)CO1	–	> 64 µg/mL	> 64 µg/mL	> 64 µg/mL	–	–	–
Cc1ccc2c(c1)C(=O)c1cc(O)ccc1C2=O	–	16 µg/mL (≈ 67.2 µM)	8 µg/mL (≈ 33.6 µM)	8 µg/mL (≈ 33.6 µM)	–	–	–
Cc1ncc([N+](=O)[O-])n1CCO [METRONIDAZOLE]	–	32 µg/mL (≈ 187 µM)	16 µg/mL (≈ 93.5 µM)	2 µg/mL (≈ 11.7 µM)	0.76 log10CFU/ml	33%	–
COC(=O)c1ccc2c(c1)C(=O)c1cc(O)ccc1C2=O	–	2 µg/mL (≈ 7.09 µM)	4 µg/mL (≈ 14.2 µM)	2 µg/mL (≈ 7.09 µM)	–	–	–
Cc1ccc2c(c1)C(=O)c1cc(O)c(O)cc1C2=O	–	32 µg/mL (≈ 126 µM)	32 µg/mL (≈ 126 µM)	32 µg/mL (≈ 126 µM)	–	–	–
COc1ccc2c(c1)C(=O)c1cc(CO)ccc1C2=O	–	8 µg/mL (≈ 29.8 µM)	8 µg/mL (≈ 29.8 µM)	8 µg/mL (≈ 29.8 µM)	–	–	–
OC[C@H]1O[C@@H](Oc2c3c(c(O[C@@H]4O[C@H](CO)[C@@H](O)[C@H](O)[C@H]4O)c4ccccc24)COC=C3)[C@H](O)[C@@H](O)[C@@H]1O	–	32 µg/mL (≈ 59.4 µM)	32 µg/mL (≈ 59.4 µM)	32 µg/mL (≈ 59.4 µM)	–	–	–
O=C(O)c1ccc2c(c1)C(=O)c1ccccc1C2=O	–	0.25 µg/mL (≈ 0.991 µM)	1 µg/mL (≈ 3.96 µM)	0.5 µg/mL (≈ 1.98 µM)	–	–	–
